Article PMC8119466, “A screen of FDA-approved drugs identifies inhibitors of protein tyrosine phosphatase 4A3 (PTP4A3 or PRL-3)” (Scientific Reports, 2021)
Structures can show the parent of a compound that is named as a salt. Where two headings read alike, the source gives them in different places.

What was measured:
Format in all cases: biochemical
[1] = target: T1, recombinant PRL-3 (Homo sapiens, UniProt O75365); assay: In vitro phosphatase assay (DiFMUP hydrolysis), PRL-3; further: test concentration or dose not given here
T1 construct: 6xHis (N, cleaved yes); made in house; host or cells: E. coli One Shot BL21 Star

[2] = target: T2, recombinant PRL-2 (Homo sapiens, UniProt Q12974); assay: In vitro phosphatase assay (DiFMUP hydrolysis), PRL-2;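 further: PRL-2 activity read as DiFMUP hydrolysis after 20 min at room temperature with drug, enzyme first pre-reduced at 4 °C for 20 min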
T2 construct: 6xHis (N, cleaved yes); made in house; host or cells: E. coli One Shot BL21 Star
T2 sequence (Q12974 1-167): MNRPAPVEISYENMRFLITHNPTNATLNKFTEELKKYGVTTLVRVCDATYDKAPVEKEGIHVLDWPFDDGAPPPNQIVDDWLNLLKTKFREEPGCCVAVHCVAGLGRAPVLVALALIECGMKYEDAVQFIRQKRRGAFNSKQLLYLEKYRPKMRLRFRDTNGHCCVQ

[3] = target: T3, recombinant PRL-1 (Homo sapiens, UniProt Q93096); assay: In vitro phosphatase assay (DiFMUP hydrolysis), PRL-1; further: test concentration or dose not given here
T3 construct: 6xHis (N, cleaved yes); made in house; host or cells: E. coli One Shot BL21 Star
T3 sequence (Q93096 1-173): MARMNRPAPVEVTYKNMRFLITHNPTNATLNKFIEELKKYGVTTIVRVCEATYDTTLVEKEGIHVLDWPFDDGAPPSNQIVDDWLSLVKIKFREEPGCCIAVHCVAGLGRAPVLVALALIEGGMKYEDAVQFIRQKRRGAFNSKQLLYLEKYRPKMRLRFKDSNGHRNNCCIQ

[4] = FDA-approved drug screen, compared to DMSO
[5] = FDA-approved drug screen, activity compared to DMSO

T1 sequence (O75365 whole entry): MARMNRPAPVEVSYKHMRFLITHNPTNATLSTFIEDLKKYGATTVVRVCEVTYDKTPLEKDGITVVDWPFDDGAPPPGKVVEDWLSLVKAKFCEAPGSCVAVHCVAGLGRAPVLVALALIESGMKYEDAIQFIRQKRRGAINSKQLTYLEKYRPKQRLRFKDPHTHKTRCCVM

Structure (SMILES) | % Phosphatase Activity (compared to DMSO) PRL-3 [1, 4] [%] | % Phosphatase Activity (compared to DMSO) PRL-2 [2, 4] [%] | % Phosphatase Activity (compared to DMSO) PRL-1 [3, 4] [%] | also measured
C[C@H]1C[C@H]2[C@@H]3CCC4=CC(=O)C=C[C@]4(C)[C@H]3C(=O)C[C@]2(C)[C@@]1(O)C(=O)CO [Meprednisone] | 78 | 97 | 99 | –
CC(=O)N[C@@H](CS)C(=O)O [Acetylcysteine] | 70 | 99 | 89 | –
CC1(C)S[C@@H]2[C@H](NC(=O)[C@H](N)c3ccc(O)cc3)C(=O)N2[C@H]1C(=O)[O-].[Na+] [Amoxicillin Sodium] | – | – | – | % Phosphatase Activity (compared to DMSO) PRL-3 [1]: 80%; % Phosphatase Activity (compared to DMSO) PRL-2 [2]: 114%; % Phosphatase Activity (compared to DMSO) PRL-1 [3]: 97%
CC(=O)OCC(=O)[C@@]1(O)CC[C@H]2[C@@H]3CCC4=CC(=O)C=C[C@]4(C)[C@H]3[C@@H](O)C[C@@]21C [Prednisolone Acetate] | 80 | 102 | 105 | –
NC(=O)[C@@H]1CCCN1C(=O)[C@H](Cc1cnc[nH]1)NC(=O)[C@@H]1CCC(=O)N1 [Protirelin] | 106 | 91 | 97 | –
CC(C)(C)C(=O)C(Oc1ccc(Cl)cc1)n1ccnc1 (stereo not drawn) [Climbazole] | 73 | 94 | 87 | –
Cc1cc(NS(=O)(=O)c2ccc(N)cc2)no1 [Sulfamethoxazole] | – | – | – | % Phosphatase Activity (compared to DMSO) PRL-3 [1]: 86%; % Phosphatase Activity (compared to DMSO) PRL-2 [2]: 96%; % Phosphatase Activity (compared to DMSO) PRL-1 [3]: 91%
COCCCC/C(=N\OCCN)c1ccc(C(F)(F)F)cc1 [Fluvoxamine maleate] | 75 | 100 | 88 | –
COc1ccccc1OCCNCC(O)COc1cccc2[nH]c3ccccc3c12 (stereo not drawn) [Carvedilol] | 111 | 128 | 97 | –
[H]/N=C(\N/C(=N/[H])NCCCCCCNC(=N)NC(=N)Nc1ccc(Cl)cc1)Nc1ccc(Cl)cc1 [Chlorhexidine HCl] | 118 | 112 | 97 | –
CC(=O)OCC(=O)NCCCOc1cccc(CN2CCCCC2)c1 [Roxatidine Acetate HCl] | 95 | 111 | 96 | –
Clc1ccc(C(Cn2ccnc2)OCc2ccsc2Cl)c(Cl)c1 (stereo not drawn) [Tioconazole] | – | – | – | % Phosphatase Activity (compared to DMSO) PRL-3 [1]: 84%; % Phosphatase Activity (compared to DMSO) PRL-2 [2]: 92%; % Phosphatase Activity (compared to DMSO) PRL-1 [3]: 83%
CC(C)c1c(C(=O)Nc2ccccc2)c(-c2ccccc2)c(-c2ccc(F)cc2)n1CC[C@@H](O)C[C@@H](O)CC(=O)O [Atorvastatin Calcium] | 74 | 87 | 100 | –
Nc1nc(N)c2nc(-c3ccccc3)c(N)nc2n1 [Triamterene] | – | – | – | % Phosphatase Activity (compared to DMSO) PRL-3 [1, 5]: 3828%; % Phosphatase Activity (compared to DMSO) PRL-2 [2, 5]: 6324%; % Phosphatase Activity (compared to DMSO) PRL-1 [3, 5]: 7090%
CCCCCN(C)CCC(O)(P(=O)([O-])O)P(=O)(O)O.[Na+] [Ibandronate sodium] | 109 | 96 | 93 | –
Cc1ccccc1C(=O)Nc1ccc(C(=O)N2CCCC(O)c3cc(Cl)ccc32)c(C)c1 (stereo not drawn) [Tolvaptan] | – | – | – | % Phosphatase Activity (compared to DMSO) PRL-3 [1, 5]: 101%; % Phosphatase Activity (compared to DMSO) PRL-2 [2, 5]: 143%; % Phosphatase Activity (compared to DMSO) PRL-1 [3, 5]: 97%
CC[C@H](NC(=O)[C@H](C)NC)C(=O)N1C[C@@H](O)C[C@H]1Cc1c(-c2[nH]c3cc(F)ccc3c2C[C@@H]2C[C@H](O)CN2C(=O)[C@H](CC)NC(=O)[C@H](C)NC)[nH]c2cc(F)ccc12 [Birinapant] | 138 | 129 | 138 | –
CCCCCCCN(CC)CCCC(O)c1ccc(NS(C)(=O)=O)cc1.CCCCCCCN(CC)CCCC(O)c1ccc(NS(C)(=O)=O)cc1.O=C(O)/C=C/C(=O)O (stereo not drawn) [Ibutilide Fumarate] | 88 | 128 | 100 | –
COC(c1ccccc1)(c1ccccc1)[C@H](Oc1nc(C)cc(C)n1)C(=O)O [Ambrisentan] | 78 | 99 | 94 | –
Cc1cc2c(s1)Nc1ccccc1N=C2N1CCN(C)CC1 [Olanzapine] | 80 | 97 | 99 | –
NC(=O)NO [Hydroxyurea] | 100 | 113 | 91 | –
CC(O)(CS(=O)(=O)c1ccc(F)cc1)C(=O)Nc1ccc(C#N)c(C(F)(F)F)c1 (stereo not drawn) [Bicalutamide] | 99 | 108 | 118 | –
CCCCCCCCCC(=O)N[C@@H](Cc1c[nH]c2ccccc12)C(=O)N[C@H](CC(N)=O)C(=O)N[C@@H](CC(=O)O)C(=O)N[C@@H]1C(=O)NCC(=O)N[C@@H](CCCN)C(=O)N[C@@H](CC(=O)O)C(=O)N[C@H](C)C(=O)N[C@@H](CC(=O)O)C(=O)NCC(=O)N[C@H](CO)C(=O)N[C@@H]([C@H](C)CC(=O)O)C(=O)N[C@@H](CC(=O)c2ccccc2N)C(=O)O[C@@H]1C [Daptomycin] | 95 | 75 | 90 | –
O=C(/C=C/c1cccc(S(=O)(=O)Nc2ccccc2)c1)NO [Belinostat (PXD101)] | 80 | 104 | 98 | –
CC(=O)NC[C@H]1CN(c2ccc(N3CCOCC3)c(F)c2)C(=O)O1 [Linezolid] | 89 | 97 | 98 | –
Nc1ccccc1NC(=O)c1ccc(CNc2nccc(-c3cccnc3)n2)cc1 [Mocetinostat (MGCD0103)] | 84 | 108 | 98 | –

More lines, main results first:

% Phosphatase Activity (compared to DMSO) PRL-3 [1, 4] [%] | % Phosphatase Activity (compared to DMSO) PRL-2 [2, 4] [%] | % Phosphatase Activity (compared to DMSO) PRL-1 [3, 4] [%] | Structure (SMILES) | also measured
92 | 112 | 108 | CCN(CC)CCOC(=O)c1ccc(N)cc1 [Procaine HCl] | –
82 | 87 | 97 | COC(=O)C1=C(C)NC(C)=C(C(=O)OCCN2CCN(C(c3ccccc3)c3ccccc3)CC2)C1c1cccc([N+](=O)[O-])c1.Cl.Cl (stereo not drawn) [Manidipine 2HCl] | –
101 | 87 | 108 | CN1CCOC(c2ccccc2)c2ccccc2C1 (stereo not drawn) [Nefopam HCl] | –
88 | 108 | 100 | CC(C)C(=O)OCC(=O)[C@@]12O[C@H](C3CCCCC3)O[C@@H]1C[C@H]1[C@@H]3CCC4=CC(=O)C=C[C@]4(C)[C@H]3[C@@H](O)C[C@@]12C [Ciclesonide] | –
81 | 95 | 99 | CC(C)(Oc1ccc(Cl)cc1)C(=O)O [Clofibric Acid] | –
70 | 105 | 95 | CN(C)CC(c1ccc(O)cc1)C1(O)CCCCC1 (stereo not drawn) [Desvenlafaxine] | –
74 | 17 | 40 | CC(/C=C1\SC(=S)N(CC(=O)O)C1=O)=C\c1ccccc1 [Epalrestat] | –
76 | 98 | 92 | COc1ccc2cccc(CCNC(C)=O)c2c1 [Agomelatine] | –
64 | 100 | 95 | O=c1c(-c2ccc(O)cc2)coc2cc(O)cc(O)c12 [Genistein] | –
62 | 101 | 90 | Cc1cccc(C)c1OCC(=O)N[C@@H](Cc1ccccc1)[C@@H](O)C[C@H](Cc1ccccc1)NC(=O)[C@H](C(C)C)N1CCCNC1=O [Lopinavir] | –
76 | 88 | 84 | CCC1=C(C)CN(C(=O)NCCc2ccc(S(=O)(=O)NC(=O)N[C@H]3CC[C@H](C)CC3)cc2)C1=O [Glimepiride] | –
